{"source": "patent US7981896B2", "about": "(Athersys, Inc., priority 2006, dated 2011)", "target": "T1, human histamine H3 receptor (Homo sapiens, UniProt Q9Y5N1)", "T1 construct": "endogenous in cells; host or cells: HT1080-Gqαi5 RAGE clone (RAGE-H3), human fibrosarcoma line; integrated RAGE vector pFG8-HH3 supplies exon 1, the cell's own gene supplies the other exons", "T1 sequence (Q9Y5N1 whole entry)": "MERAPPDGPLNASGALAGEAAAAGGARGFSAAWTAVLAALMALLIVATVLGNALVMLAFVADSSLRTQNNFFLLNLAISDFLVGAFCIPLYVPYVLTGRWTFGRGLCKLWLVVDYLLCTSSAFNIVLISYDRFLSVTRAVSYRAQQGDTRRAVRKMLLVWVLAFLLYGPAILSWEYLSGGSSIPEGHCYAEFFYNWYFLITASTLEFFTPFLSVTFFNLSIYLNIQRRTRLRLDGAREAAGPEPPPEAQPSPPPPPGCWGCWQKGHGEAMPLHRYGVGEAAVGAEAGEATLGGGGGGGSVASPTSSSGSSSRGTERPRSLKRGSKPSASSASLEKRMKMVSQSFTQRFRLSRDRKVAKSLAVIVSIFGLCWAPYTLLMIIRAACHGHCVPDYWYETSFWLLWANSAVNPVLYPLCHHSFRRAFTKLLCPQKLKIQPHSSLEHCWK", "test": "Competition radioligand binding assay with [125I]iodoproxyfan on membranes of RAGE-H3 (HT1080-Gqαi5) cells expressing human H3 receptor", "details": "~0.15 nM [125I]iodoproxyfan, 1.5 hrs at room temperature, head does not name the quantity (apparent Ki by Cheng-Prussof)", "procedure": "Representative compounds of the present invention that were prepared by the procedures of Examples 1-83 were evaluated in binding assays against cells expressing human H3 receptor by the following procedure.\n[^125I]iodoproxyfan (2000 Ci/mmol) was obtained from Amersham Bioscience (Piscataway, N.J.). All other chemicals were either from Sigma-Aldrich (St. Louis, Mo.) or Tocris Cookson Inc. (Ellisville, Mo.).\nThe human histamine H3 receptor was stably expressed in HT1080 cells containing the chimeric G-protein, Gq[…]i5 (Coward et al., Anal Biochem 1999; 270:242-8). HT1080-Gqαi5 cells were grown in alpha-modified MEM containing 10% fetal bovine serum and 7 μg/ml blasticidin at 37° C. in 5% CO2/95% atmosphere. Cells (4.8×10^9) were irradiated with 50 rads from a ^137Cs source and the pFG8-HH3 RAGE (Random Activation of Gene Expression; see Harrington et al., Nature Biotechnology. 2001; 19:440-45) vector was subsequently integrated into the cells via electroporation (250V, 600 μF, 50Ω). The RAGE vector pFG8-HH3 contained cDNA sequence coding for the first exon (83 amino acids) of human H3 receptor. After electroporation, cells were plated in T75 flasks and grown in alpha-modified MEM. The culture medium was replaced 48 hrs after electroporation with alpha-modified MEM, 10% fetal bovine serum, 500 μg/ml hygromycin B and 3 μg/ml puromycin. Medium was replaced every four days during cell expansion. To identify RAGE activated cells expressing the H3 receptor, pools of approximately 10,000 colonies (5×10^7-1.5×10^8 cells total) were screened by PCR for the desired gene product (using primers specific to the RAGE vector and exon 2 of the H3 receptor). […] Positive 100 cells/well pools were identified by PCR, confirmed by sequencing, and subsequently subcloned to 0.8 cells/well. Once clones expressing the H3 receptor were identified by PCR analysis, assays (FLIPR or radioligand binding) were performed to confirm that the activated gene produced functional protein. The protein expression in the initial clones obtained from the RAGE library was increased by growth in the presence of methotrexate. Since the integrated RAGE vector contains the DHFR gene, such treatment selects for cells that have amplified the genetic locus containing the RAGE insert. Subclones obtained after methotrexate amplification were tested for functional activity in FLIPR assays to identify the clone that was most suitable for HTS. The final HT1080-Gqαi5 RAGE clone (RAGE-H3) expressing the human histamine H3 receptor was grown in alpha-modified MEM containing 10% fetal bovine serum, 3 μg/ml puromycin, 500 μg/ml hygromycin B, 3.2 μM methotrexate at 37° C. in 5% CO2/95% atmosphere.\nRAGE-H3 cells (10^9) were washed twice with cold PBS, scraped off the plates, and centrifuged at 1000×g for 5 minutes. Cells were resuspended in ice-cold 10 mM Tris HCl, pH 7.4, containing 5 mM EDTA and protease inhibitor cocktail tablets (Roche Molecular Biochemicals). After incubating on ice for 10 min, the cells were homogenized with a dounce homogenizer or a polytron tissue grinder, and centrifuged at 1000×g for 10 min at 4° C. The resulting supernatant was centrifuged at 32,000×g for 30 min at 4° C. The membrane pellets were resuspended in 50 mM Tris HCl, pH 7.4, and stored at −80° C. until use. Protein concentration was determined by the Bradford method (Bio-Rad Laboratories, CA).\nBinding assays were carried out in 96-well polypropylene plates in 50 mM Tris HCl, pH 7.4, containing 1 mM EDTA. Reaction mixtures contained 100 μl of membrane suspension, 50 μl of 4% DMSO, and 50 μl of increasing amounts of [^125I]iodoproxyfan (final concentration 0.0005-1.8 nM for human H3 receptor saturation binding assay). Nonspecific binding was defined by adding 10 μM clobenpropit to the reaction mixtures. […]", "data": [{"compound": "3-Methyl-1-[4-(3-piperidin-1-yl-propoxy)-phenyl]-1,4,5,6-tetrahydro-cyclopentapyrazole [Example 59]", "values": [{"measurement": "Ki", "value": "< 10", "unit": "nM"}]}, {"compound": "3-Phenyl-1-[4-(3-pyrrolidin-1-ylpropoxy)phenyl]-4,5,6,7-tetrahydro-1H-indazole [Example 43]", "values": [{"measurement": "Ki", "value": "< 1000", "unit": "nM"}]}, {"compound": "3-Phenyl-1-[4-(3-pyrrolidin-1-ylpropoxy)phenyl]-4,5,6,7-tetrahydro-2H-indazole [Example 44]", "values": [{"measurement": "Ki", "value": "< 100", "unit": "nM"}]}, {"compound": "Cc1nn(-c2ccc(OCCCN3CCCC3)cc2)c2c1CC[C@@H]1CCCC[C@@H]21", "note": "(relative stereo) [Example 5, 3-Methyl-1-[4-(3-pyrrolidin-1-ylpropoxy)phenyl]-4,5,5a,6,7,8,9,9a-octahydro-1H-benzo[g]indazole]", "values": [{"measurement": "Ki", "value": "< 1", "unit": "nM"}]}, {"compound": "Cc1c2c(nn1-c1ccc(OCCCN3CCCC3)cc1)[C@H]1CCCC[C@@H]1CC2", "note": "(relative stereo) [Example 6, 3-Methyl-2-[4-(3-pyrrolidin-1-ylpropoxy)phenyl]-4,5,5a,6,7,8,9,9a-octahydro-2H-benzo[g]indazole]", "values": [{"measurement": "Ki", "value": "< 10", "unit": "nM"}]}, {"compound": "Cc1nn(-c2ccc(OCCCN3CCCC3)cc2)c2c1CCc1ccccc1-2", "note": "[Example 1, 3-Methyl-1-[4-(3-pyrrolidin-1-ylpropoxy)phenyl]-4,5-dihydro-1H-benzo[g]indazole]", "values": [{"measurement": "Ki", "value": "< 10", "unit": "nM"}]}, {"compound": "Cc1nn(-c2ccc(OCCCN3CCC[C@H]3C)cc2)c2c1CCc1ccccc1-2", "note": "[Example 2, 3-Methyl-1-{4-[3-(2R-methylpyrrolidin-1-yl)propoxy]phenyl}-4,5-dihydro-1H-benzo[g]indazole]", "values": [{"measurement": "Ki", "value": "< 10", "unit": "nM"}]}, {"compound": "Cc1nn(-c2ccc(OCCCN3CCOCC3)cc2)c2c1CCc1ccccc1-2", "note": "[Example 3, 3-Methyl-1-[4-(3-morpholin-1-ylpropoxy)phenyl]-4,5-dihydro-1H-benzo[g]indazole]", "values": [{"measurement": "Ki", "value": "< 10", "unit": "nM"}]}, {"compound": "FC(F)(F)c1cc(/C=C/c2ccccc2)n(-c2ccc(OCCCN3CCCC3)cc2)n1", "note": "[Example 4, 1-[4-(3-Pyrrolidin-1-ylpropoxy)phenyl]-5-styryl-3-trifluoromethyl-1H-pyrazole]", "values": [{"measurement": "Ki", "value": "< 100", "unit": "nM"}]}, {"compound": "COc1ccc2c(c1)-c1c(c(C)nn1-c1ccc(OCCCN3CCCC3)cc1)CC2", "note": "[Example 7, 8-Methoxy-3-methyl-1-[4-(3-pyrrolidin-1-ylpropoxy)phenyl]-4,5-dihydro-1H-benzo[g]indazole]", "values": [{"measurement": "Ki", "value": "< 100", "unit": "nM"}]}, {"compound": "Cc1cc(C(=O)NC2CCCCC2)n(-c2ccc(OC3CCN(C4CCCC4)CC3)cc2)n1", "note": "[Example 10, 2-[4-(1-Cyclopentyl-piperidin-4-yloxy)phenyl]-5-methyl-2H-pyrazole-3-carboxylic acid cyclohexylamide]", "values": [{"measurement": "Ki", "value": "< 10", "unit": "nM"}]}, {"compound": "Cc1cc(C(=O)NC2CCCCC2)n(-c2ccc(OC3CCN(C4CCCCC4)CC3)cc2)n1", "note": "[Example 11, 2-[4-(1-Cyclohexylpiperidin-4-yloxy)phenyl]-5-methyl-2H-pyrazole-3-carboxylic acid cyclohexylamide]", "values": [{"measurement": "Ki", "value": "< 10", "unit": "nM"}]}, {"compound": "Cc1cc(C(=O)NC2CCCCC2)n(-c2ccc(OC3CCN(C(C)C)CC3)cc2)n1", "note": "[Example 12, 2-[4-(1-Isopropylpiperidin-4-yloxy)phenyl]-5-methyl-2H-pyrazole-3-carboxylic acid cyclohexylamide]", "values": [{"measurement": "Ki", "value": "< 10", "unit": "nM"}]}, {"compound": "Cc1cc(C(=O)NC2CCCCC2)n(-c2ccc(OC3CCN(C4CCC4)CC3)cc2)n1", "note": "[Example 13, 2-[4-(1-Cyclobutylpiperidin-4-yloxy)phenyl]-5-methyl-2H-pyrazole-3-carboxylic acid cyclohexylamide]", "values": [{"measurement": "Ki", "value": "< 10", "unit": "nM"}]}, {"compound": "Cc1cc(CO)n(-c2ccc(OCCCN3CCCC3)cc2)n1", "note": "[Example 14, {5-Methyl-2-[4-(3-pyrrolidin-1-ylpropoxy)phenyl]-2H-pyrazol-3-yl}methanol]", "values": [{"measurement": "Ki", "value": "< 10", "unit": "nM"}]}, {"compound": "c1ccc2nn(-c3ccc(OCCCN4CCCC4)cc3)cc2c1", "note": "[Example 18, 2-[4-(3-Pyrrolidin-1-ylpropoxy)phenyl]-2H-indazole]", "values": [{"measurement": "Ki", "value": "< 100", "unit": "nM"}]}, {"compound": "c1ccc2c(c1)cnn2-c1ccc(OCCCN2CCCC2)cc1", "note": "[Example 20, 1-[4-(3-Pyrrolidin-1-ylpropoxy)phenyl]-1H-indazole]", "values": [{"measurement": "Ki", "value": "< 10", "unit": "nM"}]}, {"compound": "CCc1cc(CC)n(-c2ccc(OCCCN3CCCC3)cc2)n1", "note": "[Example 21, 3,5-Diethyl-1-[4-(3-pyrrolidin-1-ylpropoxy)phenyl]-1H-pyrazole]", "values": [{"measurement": "Ki", "value": "< 10", "unit": "nM"}]}, {"compound": "CCc1cc(CC)n(-c2ccc(OCCCN3CCCCC3)cc2)n1", "note": "[Example 22, 3,5-Diethyl-1-[4-(3-piperidin-1-ylpropoxy)phenyl]-1H-pyrazole]", "values": [{"measurement": "Ki", "value": "< 10", "unit": "nM"}]}, {"compound": "CCc1cc(CC)n(-c2ccc(OCCCN3CCOCC3)cc2)n1", "note": "[Example 23, 3,5-Diethyl-1-[4-(3-morpholin-1-ylpropoxy)phenyl]-1H-pyrazole]", "values": [{"measurement": "Ki", "value": "< 1000", "unit": "nM"}]}, {"compound": "CC(C)c1cc(C(C)C)n(-c2ccc(OCCCN3CCCC3)cc2)n1", "note": "[Example 24, 3,5-Diisopropyl-1-[4-(3-pyrrolidin-1-yl-propoxy)-phenyl]-1H-pyrazole]", "values": [{"measurement": "Ki", "value": "< 10", "unit": "nM"}]}, {"compound": "CC(C)c1cc(C(C)C)n(-c2ccc(OCCCN3CCCCC3)cc2)n1", "note": "[Example 25, 3,5-Diisopropyl-1-[4-(3-piperidin-1-yl-propoxy)-phenyl]-1H-pyrazole]", "values": [{"measurement": "Ki", "value": "< 10", "unit": "nM"}]}, {"compound": "Cc1cc(C(C)(C)C)nn1-c1ccc(OCCCN2CCCC2)cc1", "note": "[Example 26, 3-tert-Butyl-5-methyl-1-[4-(3-pyrrolidin-1-ylpropoxy)-phenyl]-1H-pyrazole]", "values": [{"measurement": "Ki", "value": "< 10", "unit": "nM"}]}, {"compound": "Cc1cc(C(C)(C)C)nn1-c1ccc(OCCCN2CCCCC2)cc1", "note": "[Example 27, 3-tert-Butyl-5-methyl-1-[4-(3-piperidin-1-ylpropoxy)-phenyl]-1H-pyrazole]", "values": [{"measurement": "Ki", "value": "< 10", "unit": "nM"}]}, {"compound": "Cc1cc(CC(C)C)n(-c2ccc(OCCCN3CCCC3)cc2)n1", "note": "[Example 28, 5-Isobutyl-3-methyl-1-[4-(3-pyrrolidin-1-ylpropoxy)-phenyl]-1H-pyrazole]", "values": [{"measurement": "Ki", "value": "< 100", "unit": "nM"}]}, {"compound": "Cc1cc(CC(C)C)n(-c2ccc(OCCCN3CCCCC3)cc2)n1", "note": "[Example 29, 5-Isobutyl-3-methyl-1-[4-(3-piperidin-1-ylpropoxy)-phenyl]-1H-pyrazole]", "values": [{"measurement": "Ki", "value": "< 100", "unit": "nM"}]}, {"compound": "Cc1cc(CC(C)C)nn1-c1ccc(OCCCN2CCCCC2)cc1", "note": "[Example 30]", "values": [{"measurement": "Ki", "value": "< 10", "unit": "nM"}]}, {"compound": "Cc1cc(CC(C)C)nn1-c1ccc(OCCCN2CCCC2)cc1", "note": "[Example 31]", "values": [{"measurement": "Ki", "value": "< 10", "unit": "nM"}]}, {"compound": "CC(C)c1cc(C(C)C)n(-c2ccc(OC3CCN(C4CCC4)CC3)cc2)n1", "note": "[Example 32, 1-Cyclobutyl-4-[4-(3,5-diisopropylpyrazol-1-yl)phenoxy]piperidine]", "values": [{"measurement": "Ki", "value": "< 10", "unit": "nM"}]}, {"compound": "Cc1cc(C(C)(C)C)n(-c2ccc(OCCCN3CCCC3)cc2)n1", "note": "[Example 33, 5-tert-Butyl-3-methyl-1-[4-(3-pyrrolidin-1-ylpropoxy)-phenyl]-1H-pyrazole]", "values": [{"measurement": "Ki", "value": "< 10", "unit": "nM"}]}, {"compound": "Cc1cc(C(C)(C)C)n(-c2ccc(OCCCN3CCCCC3)cc2)n1", "note": "[Example 34, 5-tert-Butyl-3-methyl-1-[4-(3-piperidin-1-ylpropoxy)-phenyl]-1H-pyrazole]", "values": [{"measurement": "Ki", "value": "< 100", "unit": "nM"}]}, {"compound": "Cc1nn(-c2ccc(OCCCN3CCCC3)cc2)c(C)c1C", "note": "[Example 36, 3,4,5-Trimethyl-1-[4-(3-pyrrolidin-1-ylpropoxy)phenyl]-1H-pyrazole]", "values": [{"measurement": "Ki", "value": "< 10", "unit": "nM"}]}, {"compound": "CCc1c(C)nn(-c2ccc(OCCCN3CCCC3)cc2)c1C", "note": "[Example 37, 4-Ethyl-3,5-dimethyl-1-[4-(3-pyrrolidin-1-ylpropoxy)phenyl]-1H-pyrazole]", "values": [{"measurement": "Ki", "value": "< 10", "unit": "nM"}]}, {"compound": "CCCCc1c(C)nn(-c2ccc(OCCCN3CCCC3)cc2)c1C", "note": "[Example 38, 4-Butyl-3,5-dimethyl-1-[4-(3-pyrrolidin-1-ylpropoxy)phenyl]-1H-pyrazole]", "values": [{"measurement": "Ki", "value": "< 10", "unit": "nM"}]}]}
